Here are results for 29 molecules from ChEMBL document CHEMBL1152249, “2,6-Diaryl-4-acylaminopyrimidines as potent and selective adenosine A(2A) antagonists with improved solubility and metabolic stability” (Bioorg Med Chem Lett, 2008).

Calls of active or inactive are those of the source. The rule behind the calls is not given here.

Series [1] addresses Adenosine receptor A2a (Homo sapiens, UniProt P29274). Nature of the series: Displacement of [3H]ZM-241385 from human adenosine A2A receptor expressed in HEK293 cells. The class given is cell-based.
The species named for series [2] is Homo sapiens. Briefly: Selectivity for human adenosine A2A receptor over human adenosine A1 receptor.
Series [3] is described as follows: Aqueous solubility at pH 8.0 by HPLC. It is filed as physicochemical.
Series [4] concerns Rattus norvegicus. Briefly: Inhibition of haloperidol-induced catalepsy in po dosed rat. It is filed as functional. Particulars: read-out: MED.
The target in series [5] is Adenosine receptor A2a (Rattus norvegicus, UniProt P30543). Briefly: Activity at adenosine A2A receptor in rat PC12 cells assessed as intracellular cAMP accumulation. The class given is functional, cell-based, PC-12.
In series [6] the target is Cytochrome P450 3A4 (Homo sapiens, UniProt P08684). Briefly: Inhibition of CYP3A4. The class given is ADME.
Series [7] is described as follows: Metabolic stability in human liver microsomes assessed as intrinsic clearance. The class given is ADME, Microsome.
For series [8], the system named is Rattus norvegicus. Briefly: Inhibition of haloperidol-induced catalepsy in rat at 30 mg/kg, po. It is filed as functional, organism-based. More on the design: dose 30 mg/kg.
In series [9] the target is Cytochrome P450 2D6 (Homo sapiens, UniProt P10635). Briefly: Inhibition of CYP2D6. The class given is ADME.
Cytochrome P450 2D6, sequence (P10635 whole entry): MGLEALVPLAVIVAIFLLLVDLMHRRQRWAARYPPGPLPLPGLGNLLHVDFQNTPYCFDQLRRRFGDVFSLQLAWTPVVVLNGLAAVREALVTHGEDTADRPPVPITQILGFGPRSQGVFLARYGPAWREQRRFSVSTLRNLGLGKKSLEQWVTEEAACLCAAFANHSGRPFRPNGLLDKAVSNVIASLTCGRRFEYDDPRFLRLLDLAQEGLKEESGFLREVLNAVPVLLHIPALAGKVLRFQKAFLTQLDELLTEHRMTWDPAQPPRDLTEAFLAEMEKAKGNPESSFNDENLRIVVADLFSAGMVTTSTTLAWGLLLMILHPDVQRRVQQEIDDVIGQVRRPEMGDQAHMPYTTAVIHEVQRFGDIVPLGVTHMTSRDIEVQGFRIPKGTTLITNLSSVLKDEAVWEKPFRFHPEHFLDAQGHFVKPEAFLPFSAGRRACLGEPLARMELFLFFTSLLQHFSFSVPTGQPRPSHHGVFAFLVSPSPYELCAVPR

Adenosine receptor A2a (Homo sapiens, UniProt P29274), sequence (P29274 whole entry): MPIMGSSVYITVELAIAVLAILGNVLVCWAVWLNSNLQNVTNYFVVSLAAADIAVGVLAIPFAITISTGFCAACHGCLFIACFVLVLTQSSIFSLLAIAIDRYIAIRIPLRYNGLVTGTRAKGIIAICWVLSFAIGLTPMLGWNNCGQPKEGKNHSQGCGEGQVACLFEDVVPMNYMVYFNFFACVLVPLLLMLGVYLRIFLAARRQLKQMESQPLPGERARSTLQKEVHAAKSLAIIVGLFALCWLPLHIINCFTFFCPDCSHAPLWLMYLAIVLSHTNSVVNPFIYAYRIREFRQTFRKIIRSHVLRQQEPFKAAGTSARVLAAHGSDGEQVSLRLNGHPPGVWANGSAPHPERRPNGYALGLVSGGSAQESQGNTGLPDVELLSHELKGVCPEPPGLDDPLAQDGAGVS
Adenosine receptor A2a (Rattus norvegicus, UniProt P30543), sequence (P30543 whole entry): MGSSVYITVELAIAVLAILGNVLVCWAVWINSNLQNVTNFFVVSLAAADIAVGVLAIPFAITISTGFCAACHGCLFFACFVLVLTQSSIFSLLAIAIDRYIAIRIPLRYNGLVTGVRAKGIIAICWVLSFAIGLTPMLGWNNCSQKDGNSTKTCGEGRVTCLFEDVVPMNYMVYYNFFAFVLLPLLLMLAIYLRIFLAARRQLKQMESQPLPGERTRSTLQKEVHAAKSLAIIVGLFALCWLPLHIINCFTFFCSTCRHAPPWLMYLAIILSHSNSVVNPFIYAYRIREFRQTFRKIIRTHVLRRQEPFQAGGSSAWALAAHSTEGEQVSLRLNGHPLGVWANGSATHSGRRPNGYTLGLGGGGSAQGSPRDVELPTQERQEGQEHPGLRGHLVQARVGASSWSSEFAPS
Cytochrome P450 3A4, sequence (P08684 whole entry): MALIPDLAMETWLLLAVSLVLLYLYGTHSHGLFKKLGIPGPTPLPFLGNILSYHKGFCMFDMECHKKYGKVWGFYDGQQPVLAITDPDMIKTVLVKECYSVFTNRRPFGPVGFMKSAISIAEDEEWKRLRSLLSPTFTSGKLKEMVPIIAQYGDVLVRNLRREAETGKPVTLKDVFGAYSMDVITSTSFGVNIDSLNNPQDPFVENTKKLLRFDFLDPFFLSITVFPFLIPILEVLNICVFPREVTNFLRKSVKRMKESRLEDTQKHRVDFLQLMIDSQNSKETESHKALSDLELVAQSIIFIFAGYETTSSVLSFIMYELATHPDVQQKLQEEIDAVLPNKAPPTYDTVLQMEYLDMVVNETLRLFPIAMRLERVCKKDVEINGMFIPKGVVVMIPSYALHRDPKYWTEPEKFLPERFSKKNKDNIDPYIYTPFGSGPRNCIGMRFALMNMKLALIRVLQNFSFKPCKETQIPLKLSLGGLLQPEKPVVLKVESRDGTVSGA

Molecule `CC(=O)Nc1cc(-c2cccc(C)c2)nc(-n2nc(C)cc2C)n1` gave a Ki in series [1] of 7 nM. The Ratio Ki in series [2] is 59.
With `CC(=O)Nc1cc(-c2cccc(CC#N)c2)nc(-n2nc(C)cc2C)n1`, in series [1], the affinity, expressed as Ki, was 2 nM. Besides, in series [2], the Ratio Ki was found to be 50.
In the case of `CC(=O)Nc1cc(-c2cccc(OCCN(C)C)c2)nc(-n2nc(C)cc2C)n1`, the solubility in series [3] was more than 4000 µg/mL. Besides, in [1], the affinity, expressed as Ki, was 5 nM. The Ratio Ki in [2] was found to be 134.
In [3], `COc1cc(OC)cc(-c2cc(NC(C)=O)nc(-n3nc(C)cc3C)n2)c1` returned a solubility of less than 100 µg/mL. The molecule further returned a Ki in [1] of 0.2 nM. Besides, the minimal effective dose in series [4] worked out at 1 mg/kg. Further, the IC50 in series [5] was found to be 29 nM. The Ratio Ki in [2] was determined as 111. The Activity result in series [6] (TDE = time-dependent effect) was “tde”.
With `CC(=O)Nc1cc(-c2cc(F)cc(F)c2)nc(-n2nc(C)cc2C)n1`, the Ki in [1] came to 4 nM. Besides, the Ratio Ki in series [2] is 64.
In series [1], `CC(=O)Nc1cc(-c2cc(F)cc(O[C@@H]3CCN(C)C3)c2)nc(-n2nc(C)cc2C)n1` displayed a Ki of 2 nM. The Ratio Ki in [2] was 125. Further, in [7], the CLint scaled amounted to 3 mL/min/kg.
On to `CC(=O)Nc1cc(-c2cccc(CO[C@@H]3CCN(C)C3)c2)nc(-n2nc(C)cc2C)n1`, for which the Ki in series [1] came out at 67 nM. Further, in series [2], the Ratio Ki was 99.
`CC(=O)Nc1cc(-c2cccc(O[C@H]3CCN(C)C3)c2)nc(-n2nc(C)cc2C)n1`: in series [1], the Ki is 2 nM. The Ratio Ki in series [2] amounted to 320.
On to `CC(=O)Nc1cc(-c2cc(C)ccc2C)nc(-n2nc(C)cc2C)n1`, for which the inhibition constant (Ki) in [1] is 19 nM. The Ratio Ki in series [2] stood at 46.
`CC(=O)Nc1cc(-c2cc(C)cc(C)c2)nc(-n2nc(C)cc2C)n1` registered a Ki in [1] of 8 nM. Also, in series [2], the Ratio Ki is 43.
As to `CC(=O)Nc1cc(-c2cccc(O[C@@H]3CCN(C)C3)c2)nc(-n2nc(C)cc2C)n1`, in [1], the Ki was 4 nM. The Ratio Ki in series [2] turned out to be 145.
As for `CC(=O)Nc1cc(-c2cc(F)cc(O[C@H]3CCN(C)C3)c2)nc(-n2nc(C)cc2C)n1`, in [3], the solubility was more than 4000 µg/mL. Further, the affinity in series [1], expressed as Ki, was 1 nM. For the same molecule, the IC50 in series [5] is 15 nM. Moreover, the Ratio Ki in series [2] was 218. For the same molecule, the Activity result in series [6] and in series [9] was “Not Active” each time. The CLint scaled in series [7] turned out to be 3 mL/min/kg. In [8], the outcome was Active.
As to `CC(=O)Nc1cc(-c2cccc(C(F)(F)F)c2)nc(-n2nc(C)cc2C)n1`, in series [1], the affinity corresponds to a Ki of 2 nM. Moreover, the Ratio Ki in series [2] came to 40.
`CC(=O)Nc1cc(-c2cccc(OC3CCN(C)CC3)c2)nc(-n2nc(C)cc2C)n1` had a Ki in series [1] of 6 nM. For the same molecule, the Ratio Ki in [2] worked out at 146.
On to `COc1cccc(-c2cc(NC(C)=O)nc(-n3nc(C)cc3C)n2)c1`, for which the affinity in series [1], expressed as Ki, was 1 nM. Further, in [2], the Ratio Ki is 72.
On to `CC(=O)Nc1cc(-c2ccccc2)nc(-n2nc(C)cc2C)n1`, for which, in [1], the inhibitory constant (Ki) turned out to be 87 nM. Moreover, the Ratio Ki in series [2] is 7.
`CC(=O)Nc1cc(-c2cc(O)cc(F)c2)nc(-n2nc(C)cc2C)n1`: the Ki in series [1] is 2 nM. Besides, in series [2], the Ratio Ki is 54.
Regarding `CC(=O)Nc1cc(-c2cccc(OC3CCN(C(C)C)C3)c2)nc(-n2nc(C)cc2C)n1` (centres undefined), the affinity in [1], expressed as Ki, was 3 nM. Further, the Ratio Ki in series [2] was found to be 167.
In the case of `CC(=O)Nc1cc(-c2cccc(CO[C@H]3CCN(C)C3)c2)nc(-n2nc(C)cc2C)n1`, the Ki in series [1] amounted to 73 nM. Moreover, in series [2], the Ratio Ki worked out at 102.
Consider `COc1c(F)cccc1-c1cc(NC(C)=O)nc(-n2nc(C)cc2C)n1`, for which the solubility in series [3] is less than 100 µg/mL. Also, in series [1], the affinity, expressed as Ki, was 3 nM. Besides, the Ratio Ki in [2] was determined as 164.
On to `CC(=O)Nc1cc(-c2cccc(O)c2)nc(-n2nc(C)cc2C)n1`, for which the affinity in [1] corresponds to a Ki of 2 nM. Moreover, in [2], the Ratio Ki came out at 74.
Take `CN1CCN(CC(=O)Nc2cc(-n3cccn3)nc(-c3ccco3)n2)CC1`: in [1], the Ki came to 3 nM.
Regarding `COc1ccccc1-c1cc(NC(C)=O)nc(-n2nc(C)cc2C)n1`, the Ki in series [1] stood at 2 nM. The Ratio Ki in [2] came out at 71.
The like results for `CCN1CCC(Oc2cccc(-c3cc(NC(C)=O)nc(-n4nc(C)cc4C)n3)c2)C1` (centres undefined) were, in that order, 3 nM and 168.
`CC(=O)Nc1cc(-c2cccc(OC3CCN(C)C3)c2)nc(-n2nc(C)cc2C)n1` (centres undefined) had a solubility in series [3] of more than 4000 µg/mL. Moreover, the Ki in series [1] worked out at 2 nM. Moreover, the IC50 in [5] turned out to be 42 nM. Besides, the Ratio Ki in [2] was determined as 191. Besides, the intrinsic clearance (CLint scaled) in series [7] amounted to 54 mL/min/kg.
As for `CC(=O)Nc1cc(-c2cccc(C#N)c2)nc(-n2nc(C)cc2C)n1`, affinity in [1] was put at a Ki of 2 nM. In series [2], the Ratio Ki turned out to be 10.
As to `CC(=O)Nc1cc(-c2cc(F)cc(OC3CCN(C)C3)c2)nc(-n2nc(C)cc2C)n1` (centres undefined), the affinity in series [1] corresponds to a Ki of 1 nM. The Ratio Ki in [2] is 135. For the same molecule, in series [7], the CLint scaled was found to be 3 mL/min/kg.
Turning to `CC(=O)Nc1cc(-c2cccc(OC3CCCN(C)C3)c2)nc(-n2nc(C)cc2C)n1` (centres undefined), in series [1], the affinity corresponds to a Ki of 1 nM. The Ratio Ki in series [2] stood at 203.
Regarding `COc1ccc(-c2cc(NC(C)=O)nc(-n3nc(C)cc3C)n2)cc1`, in series [1], the Ki is 17 nM. Also, the Ratio Ki in [2] amounted to 44.
